Results published in patent US10448639B2, “Fungicidal pyrazoles” (FMC CORPORATION, priority 2009, dated 2019).
Marks after values point to notes of the source that are not given here.

How the values were obtained:
[1] = tested on: Puccinia recondita f. sp. tritici; assay: Test I: wheat leaf rust, preventive spray on wheat seedlings, visual disease rating; conditions: wheat leaf rust; for Test I rating (% disease control) / Test I disease control rating: 100 = 100% disease control; for Test I rating (% disease control): 0 = no control relative to controls; for Test I disease control rating: sprayed the day before inoculation, 0 = no disease control relative to controls
Text: (§1) General protocol for preparing test suspensions for Tests A-J: the test compounds were first dissolved in acetone in an amount equal to 3% of the final volume and then suspended at the desired concentration (in ppm) in acetone and purified water (50/50 mix by volume) containing 250 ppm of the surfactant Trem® 014 (polyhydric alcohol esters). The resulting test suspensions were then used in Tests A-J. Spraying a 200 ppm test suspension to the point of run-off on the test plants was the equivalent of a rate of 500 g/ha. Unless otherwise indicated, the rating values indicate a 200 ppm test suspension was used. (An asterisk “*” next to the rating value indicates a 40 ppm test suspension was used.)
The test suspension was sprayed to the point of run-off on wheat seedlings. The following day the seedlings were inoculated with a spore suspension of Puccinia recondita f. sp. tritici (the causal agent of wheat leaf rust) and incubated in a saturated atmosphere at 20° C. for 24 h, and then moved to a growth chamber at 20° C. for 7 days, after which time visual disease ratings were made
A dash (-) indicates no test results.

Botrytis cinerea = assay: Test B: tomato Botrytis, preventive spray on tomato seedlings, visual disease rating; conditions: tomato Botrytis; for Test B rating (% disease control) / Test B disease control rating: 100 = 100% disease control; for Test B rating (% disease control): 0 = no control relative to controls; for Test B disease control rating: 0 = no disease control relative to controls
Septoria tritici = assay: Test G: wheat leaf blotch, preventive spray on wheat seedlings, visual disease rating; conditions: wheat leaf blotch; for Test G rating (% disease control) / Test G disease control rating: 100 = 100% disease control; for Test G rating (% disease control): 0 = no control relative to controls; for Test G disease control rating: sprayed the day before inoculation, 0 = no disease control relative to controls
Alternaria solani = assay: Test C: tomato early blight, preventive spray on tomato seedlings, visual disease rating; conditions: tomato early blight; for Test C rating (% disease control) / Test C disease control rating: 100 = 100% disease control; for Test C rating (% disease control): 0 = no control relative to controls; for Test C disease control rating: 0 = no disease control relative to controls
Text: as §1
The test suspension was sprayed to the point of run-off on tomato seedlings. The following day the seedlings were inoculated with a spore suspension of Alternaria solani (the causal agent of tomato early blight) and incubated in a saturated atmosphere at 27° C. for 48 h, and then moved to a growth chamber at 20° C. for 5 days, after which time visual disease ratings were made.

[2] = tested on: Erysiphe graminis f sp. tritici; assay: Test J: wheat powdery mildew, preventive spray on wheat seedlings, visual disease rating; conditions: wheat powdery mildew; for Test J rating (% disease control) / Test J disease control rating: 100 = 100% disease control; for Test J rating (% disease control): 0 = no control relative to controls; for Test J disease control rating: sprayed the day before inoculation, 0 = no disease control relative to controls
Septoria nodorum = assay: Test F: Septoria glume blotch, preventive spray on wheat seedlings, visual disease rating; conditions: for Test F rating (% disease control) / Test F disease control rating: 100 = 100% disease control; for Test F rating (% disease control): 0 = no control relative to controls; for Test F disease control rating: Septoria glume blotch on wheat, 0 = no disease control relative to controls
[3] = tested on: Puccinia recondita f. sp. tritici; assay: Test H: wheat leaf rust, curative spray on inoculated wheat seedlings, visual disease rating; conditions: wheat leaf rust; for Test H rating (% disease control) / Test H disease control rating: 100 = 100% disease control; for Test H rating (% disease control): 0 = no control relative to controls; for Test H disease control rating: sprayed after inoculation, 0 = no disease control relative to controls
[4] = rating marked with asterisk (*), meaning not given

Row | Structure (SMILES) | Test I rating (% disease control) ([1]; preventive) | Test B rating (% disease control) (Botrytis cinerea) | Test G rating (% disease control) (Septoria tritici) | Test C rating (% disease control) (Alternaria solani) | Test J rating (% disease control) [2] | Test F rating (% disease control) (Septoria nodorum; Septoria glume blotch) | Test H rating (% disease control) ([3]; curative) | Test I disease control rating [1] | Test B disease control rating (Botrytis cinerea) | Test G disease control rating (Septoria tritici) | Test C disease control rating (Alternaria solani) | Test J disease control rating [2] | Test F disease control rating (Septoria nodorum) | Test H disease control rating [3] | other results
1 | Cc1nn(C)c(Nc2ncc(F)cc2F)c1-c1c(F)cccc1Cl [compound 279] | 98% | 100% | 100% | 99% | 100% | 0% | 8% |  |  |  |  |  |  |  | 
2 | Cc1nn(C)c(Nc2ncc(F)cc2F)c1-c1ccccc1C(F)(F)F [compound 280] | 18% | 99% | 96% | 0% | 87% | 0% | 8% |  |  |  |  |  |  |  | 
3 | COc1cccc(Nc2c(-c3c(F)cccc3F)c(C)nn2C)c1Cl [compound 289] | 96% | 100% | 99% | 0% | 97% | 0% | 0% |  |  |  |  |  |  |  | 
4 | Cc1nn(C)c(Nc2c(F)cc(C#N)cc2F)c1-c1ccc(F)cc1F [compound 290] | 100% | 100% | 100% | 99% | 100% | 87% | 0% |  |  |  |  |  |  |  | 
5 | Cc1nn(C)c(Nc2cc(C#N)ccc2Cl)c1-c1ccc(F)cc1F [compound 291] | 85% | 99% | 98% | 0% | 43% | 0% | 0% |  |  |  |  |  |  |  | 
6 | Cc1nn(C)c(Nc2c(F)cc(F)cc2Cl)c1-c1c(F)cccc1Cl [compound 298] | 100% | 100% | 100% | 93% | 100% | 87% | 0% |  |  |  |  |  |  |  | 
7 | Cc1nn(C)c(Nc2c(F)cc(F)cc2F)c1-c1c(F)cccc1F [compound 300] | 99% | 100% | 100% | 99% | 100% | 82% | 9% |  |  |  |  |  |  |  | 
8 | Cc1nn(C)c(Nc2c(F)cc(C#N)cc2F)c1-c1c(F)cccc1F [compound 301] | 98% | 99% | 100% | 87% | 99% | 87% | 0% |  |  |  |  |  |  |  | 
9 | Cc1nn(C)c(Nc2ccc(F)cc2F)c1-c1cccc(Cl)c1Cl [compound 302] |  |  |  |  |  |  |  |  |  |  |  |  |  |  | Test I rating (% disease control), marked * ([1]; preventive, rating marked with asterisk (*), meaning not given): 18* %; Test B rating (% disease control), marked * (Botrytis cinerea; [4]): 99* %; Test G rating (% disease control), marked * (Septoria tritici; [4]): 99* %; Test C rating (% disease control), marked * (Alternaria solani; [4]): 0* %; Test J rating (% disease control), marked * [2, 4]: 97* %; Test F rating (% disease control), marked * (Septoria nodorum; Septoria glume blotch, rating marked with asterisk (*), meaning not given): 0* %; Test H rating (% disease control), marked * ([3]; curative, rating marked with asterisk (*), meaning not given): 0* %
10 | Cc1nn(C)c(Nc2ncc(Cl)cc2Cl)c1-c1cccc(Cl)c1Cl [compound 303] |  |  |  |  |  |  |  | 92% | 99% | 98% | 0% | 71% | 0% | 0% | 
11 | Cc1nn(C)c(Oc2c(F)cc(C#N)cc2F)c1-c1ccccc1F [compound 305] |  |  |  |  |  |  |  | 99% | 99% | 100% | 99% | 99% | 94% | 0% | 
12 | Cc1nn(C)c(Oc2c(F)cc(C#N)cc2F)c1-c1ccccc1C(F)(F)F [compound 306] |  |  |  |  |  |  |  | 28% | 7% | 93% | 0% | 64% | 0% | 0% | 
13 | Cc1nn(C)c(Oc2c(F)cc(C#N)cc2F)c1-c1cc(C(F)(F)F)ccc1Cl [compound 307] |  |  |  |  |  |  |  | 0% | 0% | 0% | 0% | 0% | 0% | 0% | 
14 | Cc1nn(C)c(Oc2c(F)cc(C#N)cc2F)c1-c1cccnc1Cl [compound 308] |  |  |  |  |  |  |  | 100% | 81% | 98% | 0% | 0% | 0% | 9% | 
15 | COc1ccc(-c2c(C)nn(C)c2Oc2ccc(C#N)cc2F)c(Cl)c1 [compound 310] |  |  |  |  |  |  |  | 99% | 100% | 100% | 99% | 96% | 99% | 0% | 
16 | COc1ccc(-c2c(C)nn(C)c2Oc2ccc(C#N)cc2Cl)c(Cl)c1 [compound 311] |  |  |  |  |  |  |  | 99% | 100% | 100% | 0% | 91% | 60% | 0% | 
17 | Cc1nn(C)c(Nc2ccc(F)cc2Br)c1-c1ccc(F)cc1Br [compound 313] |  |  |  |  |  |  |  | 100% | 100% | 100% | 97% | 100% | 51% | 91% | 
18 | Cc1nn(C)c(Nc2ccc(F)cc2Cl)c1-c1ccc(F)cc1Br [compound 314] |  |  |  |  |  |  |  | 100% | 100% | 100% | 95% | 100% | 0% | 94% | 
